# Assay results: patent US10357577B2, “Bacterial nitroreductase enzymes and methods relating thereto” (AUCKLAND UNISERVICES LIMITED, priority 2010, dated 2019)
# “Also recorded” adds a separate entry of the source.
# Columns and labels:
# [1] = test system: HCT116 cells expressing E. coli NfsB; assay: Monolayer antiproliferative (IC50) assay, NTR-expressing HCT116; assay type: cell-based, human; conditions: 18 hrs exposure, 5 days regrowth
# Method: (§1) FIGS. 10 (B) and 10 (C) illustrates the results of evaluation of 2-nitroimidazole clinical imaging candidates with E. coli and non-E. coli NTRs. Stably-expressing cells were treated with varying concentration of 2-nitroimidazole prodrugs diluted in αMEM+5% FCS+P/S. Cells were exposed to prodrug for 18 hrs, washed and left to regrow for 5 days. IC50 was determined as the concentration of prodrug required to inhibit cell growth by 50% of untreated controls. IC50 values are mean for ≥2 independent experiments. WT:NTR ratio-ratio of IC50 means from WT cells versus NTR-expressing cell lines.
# FIG. 21 illustrates antiproliferative activity (IC50 value) of prodrug candidates with E. coli and non-E. coli nitroreductases. Stably-expressing cells were treated with varying concentration of prodrug diluted in αMEM+5% FCS+P/S. Cells were exposed to prodrug for 18 hrs, washed and left to regrow for 5 days. IC50 was determined as the concentration of prodrug required to inhibit cell growth by 50% of untreated controls. IC50 values are mean for ≥2 independent experiments. WT:NTR ratio-interexperimental ratio of IC50 means from WT cells versus NTR-expressing cell lines.
# (§2) Isolated NTR gene sequences were subject to PCR and introduced in the bicistronic plasmid F579 via Gateway cloning (Invitrogen) as described by Prosser et al. (2010, Biochem Pharmacol, 79, 678-687). Stably transfected cell lines were created by transfection of the relevant plasmid using FuGENE 6 Transfection Reagent (Roche). Transfected cell populations were maintained by passage in puromycin
# Cells were passaged in alpha-Minimal Essential Media, (αMEM; Gibco) supplemented with 5% FBS, (GIBCO NZ) without antibiotics. Cell were passaged for <3 months from frozen stocks and confirmed Mycoplasma free (PCR-ELISA; Roche Diagnostics). Cells were aliquoted into the 96-well plate (100 μL/well) and cells were left to attach (≥4 hrs). […] Plates were read on an ELx 808 Absorbance Microplate Reader (Bio-Tek Instruments). Absorbance was measured at 490 nm and 450 nm (final absorbance 490-450). […]
# [2] = test system: HCT116 cells expressing NfsB homologue P. putida 2432; assay: as above; assay type: cell-based, human; conditions: 18 hrs exposure, 5 days regrowth
# Method: as §1, §2
# Cells were passaged in alpha-Minimal Essential Media, (αMEM; Gibco) supplemented with 5% FBS, (GIBCO NZ) without antibiotics. Cell were passaged for <3 months from frozen stocks and confirmed Mycoplasma free (PCR-ELISA; Roche Diagnostics). […] Plates were read on an ELx 808 Absorbance Microplate Reader (Bio-Tek Instruments). Absorbance was measured at 490 nm and 450 nm (final absorbance 490-450). […]
# NfsB(Ec) = target: T1, NfsB(Ec) (Escherichia coli, UniProt P38489); assay: Growth Inhibition assay, NTR over-expressing E. coli SOS-R2; assay type: cell-based; conditions: elevated substrate concentrations (400 μM F-MISO, 600 μM HX4)
# T1 construct: expressed in transfected cells; host or cells: E. coli SOS-R2 (endogenous nfsA, nfsB, nemA and azoR deleted) carrying pUCX::ntr
# Method: FIG. 34 (B) illustrates the metabolism of F-MISO by members of the 58 NTR over-expression library as measured by Growth Inhibition assay as described for FIG. 34A except that cells were challenged with 400 μM F-MISO.
# FIG. 35 (B) illustrates the metabolism of HX4 by members of the 58 NTR over-expression library as measured by Growth Inhibition assay as described for FIG. 35A except that cells were challenged with 600 μM HX4.
# Individual microtiter plate wells containing 200 μl LB+amp, 0.4% glucose were inoculated with SOS-R2 pUCX::ntr strains and incubated overnight at 30° C., 200 rpm. Ten μl of the overnight culture were used to inoculate 190 μl of fresh assay media (LB+amp, 0.05 mM IPTG, 0.2% glucose) and incubated at 30° C., 200 rpm for 3 h. The 200 μl culture was split into 100 μl duplicates which were supplemented with either 100 μl challenge media (assay media+250 uM EF5+2% DMSO) or 100 μl control media (assay media+2% DMSO). Initial OD600 readings were recorded and then plates incubated at 30° C., 200 rpm for 4 h after which final OD600 readings were taken and used to calculate strains respective growth inhibition in EF5 presence.
# [3] = test system: nitroreductase NfsA-expressing HCT116 'activator' cells; assay: MCL (multicellular layer) bystander experiment, NfsA-dependent activation; assay type: cell-based, human
# Method: Displacement of the Target cell survival curve to the left (T to Tc) is indicative of the presence of a cytotoxic metabolite(s) able to diffusible out of the sensitive activator (A) cell population. The prodrug concentrations for 10% survival (C10) of target cells (wild-type cells) grown without activators (T), targets in co-culture (TC) and activators (nfsA-expressing cells) in co-culture (AC) were determined by interpolation. BEE-Bystander effect efficiency calculates the drugs bystander effect: ((Log C10T−Log C10TC)/(Log C10T−Log C10AC)).
# The prodrug concentrations for 10% survival (C10) of target cells (wild-type cells) grown without activators (T), and targets in co-culture (TC) and activators (NTR-expressing cells) in co-culture (AC) can be determined. The bystander effect of a test prodrug is measured by the bystander effect efficiency which can be calculated using the algorithm ((Log C10T−Log C10TC)/(Log C10T−Log C10AC)).
# Millicell-CM membrane inserts (Millipore) were coated in calf-skin collagen type III (Sigma-Aldrich) to facilitate cell attachment. […] After exposure, inserts were disaggregated (0.07% trypsin, 10 min, 37° C., followed by 100 μg/ml DNAase I (Sigma-Aldrich). Cells were counted, resuspended and plated in P60 dishes to determine clonogenic survival. To discriminate clonogenic activator (NTR+) from target (NTR−) colonies cells were plated in non-selective medium (total cells) and medium containing 1 μM puromycin (activator cells). Colonies were grown in a 37° C. 5% CO2 incubator for 10 days before staining with methylene blue (2 g/liter in 50% v/v aqueous ethanol). Colonies containing >50 cells were counted as clonogenic survivors. Surviving fractions for each population was calculated as the plating efficiency for drug-treated MCLs/untreated controls. The drug concentrations for 10% survival (C10) of target cells grown without activators (T), targets in co-culture (Tc) and activators in co-culture (Ac) was determined by interpolation.
# [4] = test system: ONYX-411^NfsB infected HCT-116WT cells; assay: Cytopathic effect assay, replicating adenovirus expressing E. coli NfsB; assay type: cell-based; conditions: metronidazole refreshed every 2 days, read on day 9
# Method: (§3) FIG. 31 illustrates the cytoprotective effects of NfsB dependent activation of metronidazole by conditionally replicating virus ONYX411^NfsB. HCT-116WT cells were seeded overnight and the top wells were infected with 0.125 MOI for ONYX411-nfsB and 1 MOI for ONYX411-WT with 2-fold serial dilutions. 24 hrs following infection media was replaced with fresh αMEM containing 2% FCS and varying concentrations of metronidazole, which was refreshed every 2 days. On day 9 wells were fixed with 10% TCA and stained with SRB and cell density analysed.
# (§4) HCT-116WT cells were seeded overnight and the top wells were infected with 0.125 MOI of the replication competent adenovirus ONYX411-nfsB and 1 MOI for ONYX411-WT with 2-fold serial dilutions ((Singleton et al, 2007, Cancer Gene Ther 14 (12): 953-967). 24 hrs following infection media was replaced with fresh αMEM containing 2% FCS and varying concentrations of metronidazole, which was refreshed every 2 days. On day 9 wells were fixed with 10% TCA and stained with SRB and cell density analysed.
# [5] = test system: ONYX-411^WT infected HCT-116WT cells; assay: Cytopathic effect assay, control virus; assay type: cell-based, adenovirus; conditions: metronidazole refreshed every 2 days, read on day 9
# Method: as §3, §4
# [6] = Human plasma concentration-time (AUC) and tolerability; assay type: in vivo; conditions: 50 μM metronidazole exposure, achievable in humans, read-out: human AUC equivalent to the protective exposure
# [7] = test system: 25% HCT-116^nfsB/75% HCT-116^WT or 25% HCT-116^nfsA/75% HCT-116^WT tumours; assay: Tumour xenograft growth delay; assay type: in vivo, NIH-III nude mice; conditions: single dose i.p. PR-104 1000 μmol/kg
# Method: FIG. 18 illustrates in vivo activity of PR-104 in 25% nfsB or 25% nfsA tumours. Average tumour volume and Kaplan-Meier growth plots for tumours grown subcutaneously on NIH-III mice. Tumours were composed of either 25% HCT-116^nfsB/75% HCT-116^WT or 25% HCT-116^nfsA/75% HCT-116^WT. When tumours reached 7 mm^2 mice (n=8-11 per group) were randomly assigned to a treatment group and injected with a single dose (i.p.) of PBS (control) or PR-104 (1000 μmol/kg). Tumour measurements were recorded twice weekly and mice were culled when tumours exceeded a mean diameter of […].
# Specific pathogen-free female homozygous NIH-III nude mice (CrI:NIH-Lyst^bgFoxn1^nuBtk^xid; Charles River Laboratories) were housed in Techniplast microisolator cages and fed Harlan Teklad diet 2018i. […] Tumours were monitored using electronic calipers and mice were randomised into treatment groups once their tumours reached 7×7 mm in diameter. Tumour size and body weight were determined three times weekly. Tumour volume was calculated as π (I×w^2)/6, where I is the major axis and w is the perpendicular minor axis. […] The median time for tumours to increase in volume 4-fold relative to pretreatment volume (RTV-4) was determined, and the specific growth delay (SGD) was calculated as the percentage increase in RTV-4 for treated versus control groups. […]
# T1 sequence (P38489 whole entry): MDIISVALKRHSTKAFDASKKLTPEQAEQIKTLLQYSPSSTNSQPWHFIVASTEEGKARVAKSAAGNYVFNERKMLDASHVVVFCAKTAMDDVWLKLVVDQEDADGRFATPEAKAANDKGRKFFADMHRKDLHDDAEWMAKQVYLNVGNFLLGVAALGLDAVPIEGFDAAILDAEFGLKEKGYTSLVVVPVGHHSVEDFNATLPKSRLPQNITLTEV
compound,measurement,setting,value
"O=[N+]([O-])c1nccn1CC(O)CF (stereo not shown) [F-MISO, 1-fluoro-3-(2-nitro-1H-imidazol-1-yl)propan-2-ol]",sensitivity to 2-nitroimidazoles (in words),[1],modest sensitivity
same,sensitivity to 2-nitroimidazoles (in words),[2],modest sensitivity
same,activity with 2-NI substrate (in words),NfsB(Ec),substantial activity
"O=[N+]([O-])c1nccn1Cc1cn(C(CO)CF)nn1 (stereo not shown) [HX4, 3-fluoro-2-(4-((2-nitro-1H-imidazol-1-yl)methyl)-1H-1,2,3-triazol-1-yl)propan-1-ol]",activity with 2-NI substrate (in words),NfsB(Ec),substantial activity
"Cc1ncc([N+](=O)[O-])n1CCO [Metronidazole, 2-(2-methyl-5-nitro-1H-imidazol-1-yl)ethanol]",bystander property (in words),[3]; MCL of NTR-expressing and parental HCT116 cells,lack any measurable bystander effect; also recorded: zero bystander property
same,estimated bystander effect efficiency (BEE),"[3]; hyperoxic (95% O2) MCLs, at concentrations achievable in α-MEM+10% FBS, activator fraction differs per experiment",0%
same,concentration range with reduction in oncolytic activity,[4],50 to 500 µM
same,effect on oncolytic activity (in words),[5],no inhibitory effects
same,AUC,[6],1200 µM·h
"CS(=O)(=O)OCCN(CCBr)c1c(C(=O)NCCOP(=O)(O)O)cc([N+](=O)[O-])cc1[N+](=O)[O-] [PR-104, 2-((2-bromoethyl)(2,4-dinitro-6-((2-(phosphonooxy)ethyl)carbamoyl)phenyl)amino)ethyl methanesulfonate]","PR-104 dependent growth delay, nfsB versus nfsA tumours (in words)",[7],"similar, with no statistically significant difference"
